Assay results published in ChEMBL document CHEMBL1201862, “PubChem BioAssay data set” (2004).
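Test compounds were applied to cells in 96-well plates for 48 hours at 5 doses. GI50 is the concentration that inhibits growth by half.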 Active and inactive are the calls of the source. Rule as the data show it: active = GI50 up to about 1.1 µM and inactive = higher.

How the values were obtained:
Test in all cases: growth of human tumour cells (NCI), 48 h
A549 = test system: A549
ACHN = test system: ACHN
BT-549 = test system: BT-549
HCC 2998 = test system: HCC 2998
HL-60 = test system: HL-60
HOP-62 = test system: HOP-62
HOP-92 = test system: HOP-92
Hs-578T = test system: Hs-578T
MDA-MB-231 = test system: MDA-MB-231
NCI-H226 = test system: NCI-H226
NCI-H522 = test system: NCI-H522
OVCAR-3 = test system: OVCAR-3
OVCAR-4 = test system: OVCAR-4
PC-3 = test system: PC-3
RPMI-8226 = test system: RPMI-8226
SK-MEL-28 = test system: SK-MEL-28
SK-MEL-2 = test system: SK-MEL-2
SK-MEL-5 = test system: SK-MEL-5
SW-620 = test system: SW-620
U-251 = test system: U-251

Measured: GI50

CC(C)(C)c1cc(C(=O)/C=C/C=C/c2ccccc2)cc(C(C)(C)C)c1O
inactive: A549 17.8 µM | ACHN 29.2 µM | BT-549 18.5 µM | HCC 2998 14 µM | HL-60 1.55 µM | HOP-62 41.2 µM | HOP-92 42.2 µM | Hs-578T 25.7 µM | MDA-MB-231 19.4 µM | NCI-H226 24.3 µM | NCI-H522 10.3 µM | OVCAR-3 27.4 µM | OVCAR-4 > 51.5 µM | PC-3 14.7 µM | RPMI-8226 6.97 µM | SK-MEL-28 30.5 µM | SK-MEL-2 11.7 µM | SK-MEL-5 11.3 µM | SW-620 11.5 µM | U-251 14.2 µM

CC(C)OP(=O)(OC(C)C)C(C(C)C)N(C)/C(N)=N/C#N (stereo not given)
inactive: A549 > 100 µM | ACHN > 100 µM | BT-549 > 100 µM | HCC 2998 > 100 µM | HL-60 > 100 µM | HOP-62 > 100 µM | HOP-92 > 100 µM | Hs-578T > 100 µM | MDA-MB-231 > 100 µM | NCI-H226 > 100 µM | NCI-H522 > 100 µM | OVCAR-3 > 100 µM | OVCAR-4 > 100 µM | PC-3 > 100 µM | RPMI-8226 > 100 µM | SK-MEL-28 > 100 µM | SK-MEL-2 > 100 µM | SK-MEL-5 > 100 µM | SW-620 > 100 µM | U-251 > 100 µM

O=C(O/C=C\OC1CCCC1(c1ccccc1)c1ccccc1)c1ccccc1 (stereo not given)
inactive: A549 21.4 µM | ACHN 4.1 µM | BT-549 2.12 µM | HCC 2998 18.7 µM | HL-60 1.84 µM | HOP-62 18.8 µM | HOP-92 2.07 µM | Hs-578T 7.05 µM | MDA-MB-231 2.51 µM | NCI-H226 19.8 µM | NCI-H522 19 µM | OVCAR-3 9.2 µM | OVCAR-4 3.15 µM | PC-3 3.34 µM | RPMI-8226 2.61 µM | SK-MEL-28 5.71 µM | SK-MEL-2 3.31 µM | SK-MEL-5 10.8 µM | SW-620 2.7 µM | U-251 3.66 µM

CC(=O)Nc1ccc(NS(=O)(=O)c2ccc3nc(C)n(NS(=O)(=O)c4ccc(NC(C)=O)cc4)c(=O)c3c2)cc1
inactive: A549 > 100 µM | ACHN > 100 µM | BT-549 > 100 µM | HCC 2998 > 100 µM | HL-60 > 100 µM | HOP-62 > 100 µM | HOP-92 > 100 µM | Hs-578T > 100 µM | MDA-MB-231 > 100 µM | NCI-H226 > 100 µM | NCI-H522 > 60.7 µM | OVCAR-3 > 100 µM | OVCAR-4 > 100 µM | PC-3 > 100 µM | RPMI-8226 > 100 µM | SK-MEL-28 > 100 µM | SK-MEL-2 > 100 µM | SK-MEL-5 > 100 µM | SW-620 > 100 µM | U-251 > 100 µM

NCCCCN(CCCN)C(=O)c1ccccc1
inactive: A549 > 100 µM | ACHN > 100 µM | BT-549 > 100 µM | HCC 2998 > 100 µM | HL-60 > 100 µM | HOP-62 > 100 µM | HOP-92 > 100 µM | Hs-578T > 100 µM | MDA-MB-231 > 100 µM | NCI-H226 > 100 µM | NCI-H522 > 100 µM | OVCAR-3 > 100 µM | OVCAR-4 > 100 µM | PC-3 > 100 µM | RPMI-8226 > 100 µM | SK-MEL-28 > 100 µM | SK-MEL-2 > 100 µM | SK-MEL-5 > 100 µM | SW-620 > 100 µM | U-251 > 100 µM
